Measured values reported in PubChem BioAssay AID2060627 (Molecular Pharmacology Branch, DTP, NCI, 2025).

Test system: 156681-154-R-J1-PDC complex spheroid viability
Assay: Anticancer human tumor 156681-154-R-J1-PDC patient-derived melanoma cell line growth inhibition [CLK]
Settings: for IC50: curve of first compound; for viability, T/C: stronger effect = lower value
From the text: A high-throughput screen of multi-cell type tumor spheroids was designed to identify active combinations of […] and targeted small molecules. Complex spheroids include a stromal component modeled by human endothelial cells (HUVEC) and fibroblasts modeled by human mesenchymal stem cells (MSCs). The concentration ranges selected for each drug and investigational agent were based upon clinically achievable concentrations if the clinical Cmax of the agent was known.
Compounds. The drugs and investigational agents: cirtuvivint (SM08502; NSC835563), CC-671 (NSC850746), vemurafenib (NSC761431), tapotoclax (NSC804041), sotorasib (NSC818433), adagrasib (NSC831453), MRTX-1133 (NSC836407), BAY2416964 (NSC825713), copanlisib (NSC816437), inavolisib (NSC800729), abemaciclib (NSC768073), osimertinib (NSC779217), entinostat (NSC756642), eltanexor (KPT-8602, NSC794443), venetoclax (NSC766270), ceralasertib (NSC777638), bortezomib (NSC756655), olaparib (NSC753686), talazoparib (NSC767125), alisertib (NSC759677), peposertib (NSC802822), gemcitabine (NSC613327), 5-fluorouracil (NSC19893), SN-38 (NSC673596), oxaliplatin (NSC266046), paclitaxel (NSC125973), and doxorubicin (NSC123127), were obtained from the National Cancer Institute (NCI) Developmental Therapeutics Program Chemical Repository. The FDA-approved anticancer drug set is available from the Developmental Therapeutics Program at https://dtp.cancer.gov/organization/dscb/obtaining/available plates.htm. […] The stock solutions were prepared in dimethyl sulfoxide (DMSO, Sigma-Aldrich, St. Louis, MO, cat. D2650), except for the platinum complexes which were prepared in saline (Quality Biological, Gaithersburg, MD, cat. 114-055-101), at 800-fold the tested concentration and stored at -70 degrees C prior to their use. All drugs and investigational agents were tested over a range starting from a high concentration at or near the clinical Cmax and decreasing in half-log increments. If the clinical Cmax for an agent had not been determined, the highest concentration tested was 10 microM.
Cell Culture. All cells were maintained in an incubator at 37 degrees C and 5% CO2 with 95% humidity. The PDC lines were cultured according to standard operating procedures established by the NCI PDMR. Briefly, all PDCs were thawed and cultured in Matrigel-coated flasks prepared with a working solution of 1X Ham's F-12 nutrient mix, without supplementation (Invitrogen, Waltham, MA, cat. 11765054), 100 U/mL penicillin-streptomycin (Invitrogen, cat. 15140122), and 2.5% Matrigel (Corning Inc., Corning, NY, cat. 354248) for the first three passages. The 947758-054-R-J2-PDC line was cultured in 6B/Colon 1A media, which includes advanced DMEM/F-12 (Thermo Fisher Scientific, cat. 12634028), 10 mM HEPES (Thermo Fisher Scientific, cat. 15630080), 1X GlutaMAX supplement (Thermo Fisher Scientific, cat. 35050061), 0.1 mg/mL primocin (InvivoGen, cat. ant-pm-2), 10% defined fetal bovine serum, heat inactivated (HyClone Laboratories Inc., cat. SH30070.03HI), 1.25 mM N-Acetyl-L-cysteine (Sigma-Aldrich, cat. A9165), 10 mM nicotinamide (Sigma-Aldrich, cat. N0636), 1X B-27 supplement (Thermo Fisher Scientific, cat. 17504044), 1X N-2 supplement (Thermo Fisher Scientific, cat. 17502048), and 10 microM Y-27632 dihydrochloride (Tocris Bioscience, cat. 1254). The 876862-298-R-J1-PDC was cultured in 6E media, which includes all 6B/Colon 1A media components plus 50% L-WRN conditioned media (ATCC, cat. CRL-3276), 50 ng/mL recombinant human EGF recombinant protein (hEGF; Thermo Fisher Scientific, cat. PHG0311), 10 ng/mL recombinant human fibroblast growth factor 10 (hGFG-10; PeproTech, cat. 100-26), 1 ng/mL recombinant human fibroblast growth factor 2 (hFGF-2; PeproTech, cat. 100-18B), and 1 µM prostaglandin E2 (PGE2; Tocris, cat. 2296). The 227483-062-R1-J1-PDC line was cultured in Panc media, containing all 6E components except hFGF-2, with the addition of 500 nM SB-431542 (Selleckchem, cat. S1067) and 10 nM gastrin (Tocris, cat. 3006). […]

[1] = second compound 0.0316 µM, first compound 0.0316 µM
[2] = second compound 0.0316 µM, first compound 0.1 µM
[3] = second compound 0.0316 µM, first compound 0.316 µM
[4] = second compound 0.0316 µM, first compound 1 µM
[5] = second compound 0.0316 µM, first compound 3.16 µM
[6] = second compound 0.0316 µM, first compound 10 µM
[7] = second compound 0.1 µM, first compound 0.0316 µM
[8] = second compound 0.1 µM, first compound 0.1 µM
[9] = second compound 0.1 µM, first compound 0.316 µM
[10] = second compound 0.1 µM, first compound 1 µM
[11] = second compound 0.1 µM, first compound 3.16 µM
[12] = second compound 0.1 µM, first compound 10 µM
[13] = second compound 0.316 µM, first compound 0.0316 µM
[14] = second compound 0.316 µM, first compound 0.1 µM
[15] = second compound 0.316 µM, first compound 0.316 µM
[16] = second compound 0.316 µM, first compound 1 µM
[17] = second compound 0.316 µM, first compound 3.16 µM
[18] = second compound 0.316 µM, first compound 10 µM
[19] = second compound 1 µM, first compound 0.0316 µM
[20] = second compound 1 µM, first compound 0.1 µM
[21] = second compound 1 µM, first compound 0.316 µM
[22] = second compound 1 µM, first compound 1 µM
[23] = second compound 1 µM, first compound 3.16 µM
[24] = second compound 1 µM, first compound 10 µM
[25] = second compound 3.16 µM, first compound 0.0316 µM
[26] = second compound 3.16 µM, first compound 0.1 µM
[27] = second compound 3.16 µM, first compound 0.316 µM
[28] = second compound 3.16 µM, first compound 1 µM
[29] = second compound 3.16 µM, first compound 3.16 µM
[30] = second compound 3.16 µM, first compound 10 µM
[31] = second compound 10 µM, first compound 0.0316 µM
[32] = second compound 10 µM, first compound 0.1 µM
[33] = second compound 10 µM, first compound 0.316 µM
[34] = second compound 10 µM, first compound 1 µM
[35] = second compound 10 µM, first compound 3.16 µM
[36] = second compound 10 µM, first compound 10 µM
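Further: spheroids exposed to the agents for seven days.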
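Wherever viability, T/C is given: 100% = DMSO vehicle control viability.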

Compound: C#Cc1c(F)ccc2cc(O)cc(-c3ncc4c(N5CC6CCC(C5)N6)nc(OCC56CCCN5CC(F)C6)nc4c3F)c12 (stereo unspecified) + CN1CCN(c2cc(C(=O)Nc3cc4cc(-c5cnn(C)c5)ccc4cn3)ccn2)CC1
- IC50 (second compound 0.0316 µM): > 10 µM
- IC50 (second compound 0.1 µM): > 10 µM
- IC50 (second compound 0.316 µM): < 0.0316 µM
- IC50 (second compound 1 µM): < 0.0316 µM
- IC50 (second compound 3.16 µM): < 0.0316 µM
- IC50 (second compound 10 µM): < 0.0316 µM
- viability, T/C [1]: 100%
- viability, T/C [2]: 81.5%
- viability, T/C [3]: 97%
- viability, T/C [4]: 120%
- viability, T/C [5]: 98.2%
- viability, T/C [6]: 119%
- viability, T/C [7]: 84.4%
- viability, T/C [8]: 86.7%
- viability, T/C [9]: 92.6%
- viability, T/C [10]: 100%
- viability, T/C [11]: 95.8%
- viability, T/C [12]: 97%
- viability, T/C [13]: 29%
- viability, T/C [14]: 22.5%
- viability, T/C [15]: 25.9%
- viability, T/C [16]: 26.7%
- viability, T/C [17]: 31.9%
- viability, T/C [18]: 20.6%
- viability, T/C [19]: 0.31%
- viability, T/C [20]: 2.37%
- viability, T/C [21]: 0.28%
- viability, T/C [22]: 0.23%
- viability, T/C [23]: 0.15%
- viability, T/C [24]: 1.07%
- viability, T/C [25]: 0.15%
- viability, T/C [26]: 0.39%
- viability, T/C [27]: 0.11%
- viability, T/C [28]: 0.49%
- viability, T/C [29]: 0.15%
- viability, T/C [30]: 0.12%
- viability, T/C [31]: 0.19%
- viability, T/C [32]: 2.4%
- viability, T/C [33]: 0.37%
- viability, T/C [34]: 0.17%
- viability, T/C [35]: 0.18%
- viability, T/C [36]: 0.17%

Compound: C=C(F)C(=O)N1CCN(c2nc(OCC3CCCN3C)nc3c2CCN(c2cccc4cccc(Cl)c24)C3)CC1CC#N (stereo unspecified) + CN1CCN(c2cc(C(=O)Nc3cc4cc(-c5cnn(C)c5)ccc4cn3)ccn2)CC1
- IC50 (second compound 0.0316 µM): 2.59 µM
- IC50 (second compound 0.1 µM): 1.77 µM
- IC50 (second compound 0.316 µM): < 0.0316 µM
- IC50 (second compound 1 µM): < 0.0316 µM
- IC50 (second compound 3.16 µM): < 0.0316 µM
- IC50 (second compound 10 µM): < 0.0316 µM
- viability, T/C [1]: 101%
- viability, T/C [2]: 107%
- viability, T/C [3]: 108%
- viability, T/C [4]: 81.1%
- viability, T/C [5]: 44%
- viability, T/C [6]: 0.43%
- viability, T/C [7]: 94.3%
- viability, T/C [8]: 94.6%
- viability, T/C [9]: 91.7%
- viability, T/C [10]: 79.5%
- viability, T/C [11]: 20%
- viability, T/C [12]: 0.6%
- viability, T/C [13]: 22.1%
- viability, T/C [14]: 24.1%
- viability, T/C [15]: 23.3%
- viability, T/C [16]: 24.7%
- viability, T/C [17]: 6.76%
- viability, T/C [18]: 1.76%
- viability, T/C [19]: 0.16%
- viability, T/C [20]: 0.32%
- viability, T/C [21]: 0.25%
- viability, T/C [22]: 0.59%
- viability, T/C [23]: 0.1%
- viability, T/C [24]: 0.24%
- viability, T/C [25]: 0.12%
- viability, T/C [26]: 1.74%
- viability, T/C [27]: 1.8%
- viability, T/C [28]: 0.12%
- viability, T/C [29]: 0.36%
- viability, T/C [30]: 1.56%
- viability, T/C [31]: 0.17%
- viability, T/C [32]: 0.19%
- viability, T/C [33]: 1.71%
- viability, T/C [34]: 0.23%
- viability, T/C [35]: 0.23%
- viability, T/C [36]: 0.8%

Compound: CC(CO)NC(=O)c1cc(-c2ccc(Cl)cc2)nn(-c2cnn(C)c2)c1=O (stereo unspecified) + CN1CCN(c2cc(C(=O)Nc3cc4cc(-c5cnn(C)c5)ccc4cn3)ccn2)CC1
- IC50 (second compound 0.0316 µM): > 10 µM
- IC50 (second compound 0.1 µM): > 10 µM
- IC50 (second compound 0.316 µM): < 0.0316 µM
- IC50 (second compound 1 µM): < 0.0316 µM
- IC50 (second compound 3.16 µM): < 0.0316 µM
- IC50 (second compound 10 µM): < 0.0316 µM
- viability, T/C [1]: 97.7%
- viability, T/C [2]: 107%
- viability, T/C [3]: 103%
- viability, T/C [4]: 114%
- viability, T/C [5]: 84.2%
- viability, T/C [6]: 59.6%
- viability, T/C [7]: 99.3%
- viability, T/C [8]: 94.7%
- viability, T/C [9]: 87.5%
- viability, T/C [10]: 81.8%
- viability, T/C [11]: 67%
- viability, T/C [12]: 56%
- viability, T/C [13]: 26.8%
- viability, T/C [14]: 38.3%
- viability, T/C [15]: 34.2%
- viability, T/C [16]: 29.2%
- viability, T/C [17]: 29.1%
- viability, T/C [18]: 21.5%
- viability, T/C [19]: 0.34%
- viability, T/C [20]: 0.99%
- viability, T/C [21]: 0.36%
- viability, T/C [22]: 1.64%
- viability, T/C [23]: 1.51%
- viability, T/C [24]: 2.77%
- viability, T/C [25]: 0.25%
- viability, T/C [26]: 0.92%
- viability, T/C [27]: 0.29%
- viability, T/C [28]: 1.68%
- viability, T/C [29]: 0.58%
- viability, T/C [30]: 0.23%
- viability, T/C [31]: 0.29%
- viability, T/C [32]: 0.66%
- viability, T/C [33]: 0.9%
- viability, T/C [34]: 1.31%
- viability, T/C [35]: 0.62%
- viability, T/C [36]: 1.4%
